# Source: patent US20160263109A1, “P13K INHIBITOR FOR TREATMENT OF RESPIRATORY DISEASE” (GLAXOSMITHKLINE INTELLECTUAL PROPERTY DEVELOPMENT LIMITED, priority 2013, published 2016)
# Where a name gives a salt, the structure may show the parent alone.
# Assays:
# [1] = tested on: S. pneumoniae strain TIGR4; assay: Streptococcus pneumoniae infection in mice, survival by defined mortality-endpoint; type: in vivo; conditions: C57BL/6 mice, 0.2 mg/kg intranasal twice daily for eleven days, infected intranasally with 1×10^7 CFU S. pneumoniae TIGR4; n=60; Mantel-Cox **p<0.005
# Experimental: (§1) Germ-free C57BL/6 male and female mice aged 10-12 weeks were intranasally administered with 0.2% Tween-80/saline vehicle or 0.2 mg/kg micronized 6-(1H-indol-4-yl)-4-(5-{[4-(1-methylethyl)-1-piperazinyl]methyl}-1,3-oxazol-2-yl)-1H-indazole hydrochloride in the same vehicle. Compound dosing was carried out twice daily for eleven days under anaesthesia using 3% isoflurane for induction and 2% isoflurane for maintenance. At the start of day two, and one hour after administering 6-(1H-indol-4-yl)-4-(5-{[4-(1-methylethyl)-1-piperazinyl]methyl}-1,3-oxazol-2-yl)-1H-indazole hydrochloride or vehicle, mice were anaesthetized with isoflurane as above and infected intranasally with 1×10^7 CFU of S. pneumoniae strain TIGR4. S. Pneumoniae was obtained and prepared as described previously (see, for example, Infect. Immun. December 2011; 79(12): 4965-4976) and given in an inoculum of 50 μl PBS per mouse. Mice were monitored three times daily and assessed using a defined mortality-endpoint, where mice displaying three or more of the limiting clinical signs stated in Home Office Project Licence PPL 70/7661 were culled.
# lung gene expression = assay: Affymetrix GeneChip lung gene expression in S. Pneumoniae-infected mice; type: in vivo; conditions: lungs of S. Pneumoniae-infected mice at various timepoints after infection; genes with minimum 1.5 fold-change, p<0.05; n=6
# Experimental: as §1
# Each band corresponds to a single probe and intensity signifies fold change, as indicated in the legend.
smiles,measurement,setting,value
"CC(C)N1CCN(Cc2cnc(-c3cc(-c4cccc5[nH]ccc45)cc4[nH]ncc34)o2)CC1 [6-(1H-indol-4-yl)-4-(5-{[4-(1-methylethyl)-1-piperazinyl]methyl}-1,3-oxazol-2-yl)-1H-indazole hydrochloride]",defined mortality-endpoint (percentage survival) compared to vehicle controls,[1],reduced a defined mortality-endpoint
same,lung gene expression compared to vehicle controls,lung gene expression,altered lung gene expression
